# Laboratory results from ChEMBL document CHEMBL1141065, “Inhibition of mandelate racemase by the substrate-intermediate-product analogue 1,1-diphenyl-1-hydroxymethylphosphonate” (Bioorg Med Chem Lett, 2005).
# Experiments:
# Mandelate racemase [1] = target: T1, Mandelate racemase (Pseudomonas putida, UniProt P11444); test: Inhibitory activity against Mandelate racemase at pH 7.5 at 25 degree C
# T1 sequence (P11444 whole entry): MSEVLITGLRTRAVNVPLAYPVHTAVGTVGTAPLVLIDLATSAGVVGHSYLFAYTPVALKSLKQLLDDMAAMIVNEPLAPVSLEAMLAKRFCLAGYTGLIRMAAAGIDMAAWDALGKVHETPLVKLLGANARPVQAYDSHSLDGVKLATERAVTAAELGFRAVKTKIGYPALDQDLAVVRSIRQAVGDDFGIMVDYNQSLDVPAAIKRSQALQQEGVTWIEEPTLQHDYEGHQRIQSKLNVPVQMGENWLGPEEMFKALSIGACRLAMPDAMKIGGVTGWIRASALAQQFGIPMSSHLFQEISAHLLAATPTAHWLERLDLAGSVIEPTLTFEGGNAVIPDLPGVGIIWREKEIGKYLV
# Mandelate racemase [2] = target: T1, Mandelate racemase; test: Inhibitory activity against Mandelate racemase at pH 8.7 at 25 degree C
# Mandelate racemase [3] = target: T1, Mandelate racemase; test: Inhibitory activity against Mandelate racemase at pH 6.3 at 25 degree C
smiles,measurement,setting,value
O=P(O)(O)C(O)(c1ccccc1)c1ccccc1,Ki,Mandelate racemase [1],1.41 mM
same,Ki,Mandelate racemase [2],6.93 mM
same,Ki,Mandelate racemase [3],5.91 mM
